Data published in ChEMBL document CHEMBL1201862, “PubChem BioAssay data set” (2004).
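Assay format: 96-well plates, 48-hour exposure. GI50 = concentration required for 50% inhibition of growth.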 Active and inactive are the calls of the source. Cut-off read from the data, not from the text of the source: active = GI50 up to about 1.1 µM and inactive = higher.

Key:
Assay in all cases: NCI tumour cell line growth inhibition, 48 h
[1] = tested on: T47D
[2] = tested on: COLO 205
[3] = tested on: BT-549
[4] = tested on: MOLT-4
[5] = tested on: PC-3
[6] = tested on: OVCAR-5
[7] = tested on: DU-145
[8] = tested on: NCI-H226
[9] = tested on: MDA-MB-231
[10] = tested on: Hs-578T
[11] = tested on: SK-OV-3
[12] = tested on: HCC 2998
[13] = tested on: HOP-18
[14] = tested on: SF-268
[15] = tested on: A549
[16] = tested on: SW-620
[17] = tested on: DMS-273
[18] = tested on: DMS-114
[19] = tested on: TK-10
[20] = tested on: LXFL 529

Measured: GI50

C[C@H]1S[C@@H](c2ccc(Cl)cc2Cl)N(NC(=O)c2ccncc2)C1=O
inactive: [1] 33 µM | [2] 70.6 µM | [3] 39.4 µM | [4] 18.4 µM | [5] 33 µM | [6] 95.9 µM | [7] 71.3 µM | [8] 41.6 µM | [9] 49.2 µM | [10] 94.2 µM | [11] > 100 µM

O=C1NC(O)CCN1C1OC(CO)C(O)C1O (centres undefined)
inactive: [12] > 250 µM | [13] > 250 µM | [2] > 250 µM | [4] > 250 µM | [14] > 250 µM | [6] > 92 µM | [15] > 250 µM | [8] > 250 µM | [16] > 250 µM | [17] > 250 µM | [11] > 250 µM | [18] > 250 µM

CC/C=C\C/C=C\C/C=C\CCCCCCCC(=O)OC [METHYL LINOLENATE]
inactive: [12] > 100 µM | [13] > 100 µM | [2] 61.1 µM | [4] 87.5 µM | [14] > 100 µM | [6] > 100 µM | [15] > 100 µM | [8] > 100 µM | [16] > 100 µM | [17] > 100 µM | [11] > 100 µM | [18] > 100 µM

COc1ccc(C(=O)NNC(=O)c2nsc3ccccc23)cc1
inactive: [12] > 100 µM | [2] > 100 µM | [4] 34 µM | [14] > 100 µM | [6] > 100 µM | [15] > 100 µM | [16] > 100 µM | [17] > 100 µM | [19] > 100 µM | [18] 63 µM | [20] > 100 µM

O=C1CSC(/C=C/c2ccccc2)N1c1nc2cc3sc(N4C(=O)CSC4/C=C/c4ccccc4)nc3cc2s1 (centres undefined)
inactive: [1] > 100 µM | [12] 43.8 µM | [2] 3.66 µM | [3] > 75.9 µM | [4] 5.9 µM | [14] > 100 µM | [5] 54.2 µM | [6] > 65.6 µM | [15] 9.82 µM | [7] > 48.9 µM | [8] 17.1 µM | [16] 9.46 µM | [9] 62.2 µM | [10] > 54 µM | [19] 37.2 µM | [11] > 100 µM

COc1cc(/C=C2\N=C(c3ccccc3)N(C3Nc4cc5c(cc4S3)NC(N3C(=O)/C(=C/c4cc(OC)c(OC)c(OC)c4)N=C3c3ccccc3)S5)C2=O)cc(OC)c1OC (centres undefined)
inactive: [1] 56.2 µM | [12] > 100 µM | [3] 97.1 µM | [4] 25.9 µM | [14] > 100 µM | [5] 82.6 µM | [6] > 100 µM | [15] 23.6 µM | [7] 94.8 µM | [8] > 100 µM | [16] > 100 µM | [9] > 100 µM | [10] > 100 µM | [19] > 100 µM

Cc1n[nH]c(CC#N)n1
inactive: [12] > 100 µM | [2] > 100 µM | [3] > 100 µM | [4] > 100 µM | [14] > 100 µM | [5] > 100 µM | [6] > 100 µM | [15] > 100 µM | [7] > 100 µM | [16] > 100 µM | [9] > 100 µM | [19] > 100 µM | [11] > 100 µM

O=C(OCCOC(=O)c1ccc2c(c1)C1(SCCS1)c1ccccc1-2)c1ccc2c(c1)C1(SCCS1)c1ccccc1-2
inactive: [12] > 100 µM | [13] 27.5 µM | [2] > 100 µM | [4] > 100 µM | [14] > 100 µM | [6] > 100 µM | [15] > 100 µM | [8] > 100 µM | [16] > 100 µM | [11] > 100 µM | [18] > 100 µM | [20] > 100 µM

CCOC(=O)C1CCn2c(nc3c2c(=O)n(C)c(=O)n3C)S1 (centres undefined)
inactive: [13] > 100 µM | [4] > 100 µM | [14] > 100 µM | [6] > 100 µM | [15] > 100 µM | [8] > 100 µM | [16] > 100 µM | [17] > 100 µM | [19] > 100 µM | [11] > 100 µM | [20] > 100 µM

Cc1cc(=O)oc2c1cc1ccc3cccc4ccc2c1c34
inactive: [13] > 100 µM | [2] > 100 µM | [4] > 100 µM | [14] > 100 µM | [8] > 100 µM | [16] > 100 µM | [19] > 100 µM | [11] > 100 µM | [20] > 100 µM

Cn1c(=O)c(C#N)c(O)c2cc3ccccc3nc21
inactive: [12] > 100 µM | [13] > 100 µM | [2] > 100 µM | [4] > 100 µM | [14] > 100 µM | [15] > 100 µM | [8] > 100 µM | [16] > 100 µM | [17] > 100 µM | [19] > 100 µM | [11] > 100 µM | [18] > 100 µM | [20] > 100 µM
